How the values were obtained:
HER2 INS YVMA = target: T1, HER2 INS YVMA (Homo sapiens, UniProt P04626, INS775YVMA); assay: Lance Kinase Activity Assay, Her2 Exon 20 InsYVMA; details: biochemical Lance assay
T1 construct: purchased DPF
Procedure: This protocol describes how the Lance Kinase Activity Assay was performed to determine IC50 values of compounds of general formula (I) against HER2 INS YVMA. The principle behind this enzymatic assay is based upon the phosphorylation of the Ulight-peptide substrate. It is detected by using a specific EU-labeled anti-phospho peptide antibody. The binding of the Eu labeled anti-phospho peptide antibody to the phosphorylated ULight labeled peptide gives rise to a FRET-signal. Binding of an inhibitor to the kinase prevents phosphorylation of the Ulight-substrate, resulting in a loss of FRET. In table 2 is summarized the relevant information for the LANCE assay. Table 2: Reagents, stock concentrations and final assay concentrations for Her2 INS YVMA.
The compounds of general formula (I) summarized in Table 3 were serial diluted from a 10 mM DMSO stock solution 1:3 over 8 steps in a total volume of 20 µl. For every sample, 8 µl of kinase-substrate mix was transferred into a suitable assay plate (e.g. Corning #3673). Compound was added via pintool transfer (10nl/well) using a Biomek FX robot (BeckmanCoulter). Reaction was started by addition of 2µl ATP working solution and mixed using variomag teleshaker (Thermo Fischer Scientific). After 1 h incubation at room temperature the reaction was stopped with 10µl detection mix containing the Eu-labeled phosphospecific antibody and 10mM EDTA. After a second incubation period of 1 h at room temperature the FRET signal was measured at 340 nm excitation, 665 nm and 615 nm emission (for the ULight-substrate and Eu-AB, respectively) with an Envision spectrophotometer (Perkin Elmer, Waltham, MA, USA) with 50 µs delay and 300 µs integration time. IC50 values were determined from the sigmoidal dose response curves with the software Quattro Workflow (Quattro GmbH, Munich, Germany).

[1] = system: EGFR Exon 20 InsNPH Ba/F3; assay: CellTiter-Glo cell viability, EGFR Exon 20 InsNPH Ba/F3; type: cell-based; details: Mus musculus, BaF3, 72 h, read-out: EGFR Exon 20 InsNPH Ba/F3 CTG IC50
Procedure: (§1) The CellTiter-Glo Luminescent Cell Viability Assay (Promega) is a homogeneous method of determining the number of viable cells in culture. It is based on quantification of ATP, indicating the presence of metabolically active cells. Cells are seeded on day 1 at cell numbers that assure assay linearity and optimal signal intensity. After incubation for 24h in humidified chambers at 37°C and 5% CO2, compounds in DMSO are added at different concentrations. Cells are further incubated for 72 h at 37°C and 5% CO2. Cells treated with the compound vehicle DMSO are used as positive controls and cells treated with 10 µM Staurosporine serve as negative controls. At day 5 the CellTiter Glo Reagent is prepared according to the instructions of the kit (Promega Inc.): Reagent is mixed 1:1 with cell culture medium. Thereon, mixture and assay plates are equilibrated at room temperature for 20 min. Equal volumes of the reagent-medium-mixture is added to the volume of culture medium present in each well. The plates are mixed at ∼200 rpm for 2 minutes on an orbital shaker. The microplates are then incubated at room temperature for 10 minutes for stabilization of the luminescent signal. Following incubation the luminescence is recorded on a Victor microplate reader (Perkin Elmer) using a 200 ms integration time. The data is then analyzed with Excel using the XLFIT Plugin (dose response Fit 205) for IC50-determination. As quality control the Z'-factor is calculated from 16 positive and negative control values. Only assay results showing a Z'-factor ≥ 0.5 are used for further analysis.

[2] = system: Her2 Exon 20 InsYVMA Ba/F3; assay: CellTiter-Glo cell viability, Her2 Exon 20 InsYVMA Ba/F3; type: cell-based; details: Mus musculus, BaF3, 72 h, read-out: Her2 Exon 20 InsYVMA Ba/F3 CTG IC50
Procedure: as §1

EGFR T790M L858R = EGFR T790M L858R (Homo sapiens, UniProt P00533, L858R/T790M); assay: Lance assay, EGFR T790M L858R; details: biochemical Lance assay
EGFR L858R = EGFR L858R (Homo sapiens, UniProt P00533, L858R); assay: Lance assay, EGFR L858R; details: biochemical Lance assay
EGFR (del746-750) = EGFR (del746-750) (Homo sapiens, UniProt P00533, DEL746-750); assay: Lance assay, EGFR (del746-750); details: biochemical Lance assay
EGFR wt = EGFR wt (Homo sapiens, UniProt P00533); assay: Lance assay, EGFR wt; details: biochemical Lance assay
A431 = assay: CellTiter-Glo cell viability, A431; type: cell-based; details: Homo sapiens, A-431, 72 h, read-out: A431 CTG IC50
Procedure: as §1

EGFR L858R T790M Ba/F3 = assay: CellTiter-Glo cell viability, EGFR L858R T790M Ba/F3; type: cell-based; details: Mus musculus, BaF3, 72 h, read-out: EGFR L858R T790M Ba/F3 CTG IC50 /
Procedure: as §1

EGFR L858R Ba/F3 = assay: CellTiter-Glo cell viability, EGFR L858R Ba/F3; type: cell-based; details: Mus musculus, BaF3, 72 h, read-out: EGFR L858R Ba/F3 CTG IC50 /
Procedure: as §1

EGFR vIII Ba/F3 = assay: CellTiter-Glo cell viability, EGFR vIII Ba/F3; type: cell-based; details: Mus musculus, BaF3, 72 h, read-out: EGFR vIII Ba/F3 CTG IC50 /
Procedure: as §1

Cuto-17 = assay: CellTiter-Glo cell viability, Cuto-17; type: cell-based; details: CUTO17, 72 h, read-out: Cuto-17 CTG IC50
Procedure: as §1

H1975 = assay: CellTiter-Glo cell viability, H1975; type: cell-based; details: Homo sapiens, NCI-H1975, 72 h, read-out: H1975 CTG IC50
Procedure: as §1

T1 sequence (P04626 with tags, fused parts or gaps INS775YVMA): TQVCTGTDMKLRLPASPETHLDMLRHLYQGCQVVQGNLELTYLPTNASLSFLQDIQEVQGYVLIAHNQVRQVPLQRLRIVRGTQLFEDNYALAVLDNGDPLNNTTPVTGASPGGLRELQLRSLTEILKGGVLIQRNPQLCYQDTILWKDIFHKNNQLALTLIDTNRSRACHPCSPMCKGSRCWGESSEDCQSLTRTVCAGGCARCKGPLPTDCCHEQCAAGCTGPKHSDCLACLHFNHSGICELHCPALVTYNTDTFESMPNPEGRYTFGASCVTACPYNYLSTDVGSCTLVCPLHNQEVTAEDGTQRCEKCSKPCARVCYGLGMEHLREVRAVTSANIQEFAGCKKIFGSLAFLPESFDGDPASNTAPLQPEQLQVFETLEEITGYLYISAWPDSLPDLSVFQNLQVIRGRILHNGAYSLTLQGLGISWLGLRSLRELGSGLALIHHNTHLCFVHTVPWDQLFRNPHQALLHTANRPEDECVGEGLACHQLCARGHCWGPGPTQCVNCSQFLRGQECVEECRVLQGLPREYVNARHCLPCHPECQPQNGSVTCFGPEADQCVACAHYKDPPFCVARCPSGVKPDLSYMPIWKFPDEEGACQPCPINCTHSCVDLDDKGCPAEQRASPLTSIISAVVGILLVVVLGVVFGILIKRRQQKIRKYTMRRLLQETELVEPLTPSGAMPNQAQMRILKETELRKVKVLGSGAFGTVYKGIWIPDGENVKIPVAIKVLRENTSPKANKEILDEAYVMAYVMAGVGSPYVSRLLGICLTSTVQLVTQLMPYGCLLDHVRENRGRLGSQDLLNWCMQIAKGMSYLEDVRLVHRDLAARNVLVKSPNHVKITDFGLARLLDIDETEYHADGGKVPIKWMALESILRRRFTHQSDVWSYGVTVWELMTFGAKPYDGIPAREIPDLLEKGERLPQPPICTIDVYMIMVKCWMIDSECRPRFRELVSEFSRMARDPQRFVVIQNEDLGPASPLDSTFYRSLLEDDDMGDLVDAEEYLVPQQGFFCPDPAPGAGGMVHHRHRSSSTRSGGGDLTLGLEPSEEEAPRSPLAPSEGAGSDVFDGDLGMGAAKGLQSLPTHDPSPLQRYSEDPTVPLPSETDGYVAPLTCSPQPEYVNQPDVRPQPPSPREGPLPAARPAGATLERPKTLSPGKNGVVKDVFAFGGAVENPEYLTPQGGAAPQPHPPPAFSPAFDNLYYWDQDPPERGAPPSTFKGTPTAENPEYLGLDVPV
Sequence of EGFR (del746-750) (P00533 with tags, fused parts or gaps DEL746-750): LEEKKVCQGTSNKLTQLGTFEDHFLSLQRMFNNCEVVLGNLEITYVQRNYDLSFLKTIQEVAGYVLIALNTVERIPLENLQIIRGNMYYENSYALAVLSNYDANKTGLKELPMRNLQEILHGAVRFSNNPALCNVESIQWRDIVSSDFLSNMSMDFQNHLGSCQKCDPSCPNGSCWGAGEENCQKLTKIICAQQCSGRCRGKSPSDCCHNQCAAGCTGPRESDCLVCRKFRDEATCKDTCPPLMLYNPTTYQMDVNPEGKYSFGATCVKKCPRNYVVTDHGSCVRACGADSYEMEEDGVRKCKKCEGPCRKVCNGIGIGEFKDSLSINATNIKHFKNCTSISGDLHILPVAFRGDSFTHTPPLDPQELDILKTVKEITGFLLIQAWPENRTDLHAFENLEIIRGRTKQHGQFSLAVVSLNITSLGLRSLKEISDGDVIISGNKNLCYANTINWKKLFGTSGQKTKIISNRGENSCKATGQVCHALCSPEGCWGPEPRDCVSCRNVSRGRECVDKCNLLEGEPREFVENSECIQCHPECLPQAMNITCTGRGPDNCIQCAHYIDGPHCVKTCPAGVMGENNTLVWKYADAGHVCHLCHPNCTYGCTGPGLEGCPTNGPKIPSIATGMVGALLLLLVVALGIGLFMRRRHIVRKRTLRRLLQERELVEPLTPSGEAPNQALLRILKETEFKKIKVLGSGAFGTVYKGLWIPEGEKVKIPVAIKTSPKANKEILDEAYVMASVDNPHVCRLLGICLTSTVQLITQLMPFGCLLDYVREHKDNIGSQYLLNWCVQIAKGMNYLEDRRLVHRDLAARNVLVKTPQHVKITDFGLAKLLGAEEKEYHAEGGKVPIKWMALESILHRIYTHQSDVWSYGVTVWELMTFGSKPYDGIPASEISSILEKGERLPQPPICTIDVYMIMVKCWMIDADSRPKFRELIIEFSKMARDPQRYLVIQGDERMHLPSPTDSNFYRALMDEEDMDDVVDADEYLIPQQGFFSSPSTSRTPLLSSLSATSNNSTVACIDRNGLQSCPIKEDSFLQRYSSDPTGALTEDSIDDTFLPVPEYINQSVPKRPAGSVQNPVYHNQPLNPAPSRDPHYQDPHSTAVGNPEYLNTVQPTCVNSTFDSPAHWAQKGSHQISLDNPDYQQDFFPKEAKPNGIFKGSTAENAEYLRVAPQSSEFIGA
Sequence of EGFR T790M L858R (P00533 25-1210 T790M/L858R): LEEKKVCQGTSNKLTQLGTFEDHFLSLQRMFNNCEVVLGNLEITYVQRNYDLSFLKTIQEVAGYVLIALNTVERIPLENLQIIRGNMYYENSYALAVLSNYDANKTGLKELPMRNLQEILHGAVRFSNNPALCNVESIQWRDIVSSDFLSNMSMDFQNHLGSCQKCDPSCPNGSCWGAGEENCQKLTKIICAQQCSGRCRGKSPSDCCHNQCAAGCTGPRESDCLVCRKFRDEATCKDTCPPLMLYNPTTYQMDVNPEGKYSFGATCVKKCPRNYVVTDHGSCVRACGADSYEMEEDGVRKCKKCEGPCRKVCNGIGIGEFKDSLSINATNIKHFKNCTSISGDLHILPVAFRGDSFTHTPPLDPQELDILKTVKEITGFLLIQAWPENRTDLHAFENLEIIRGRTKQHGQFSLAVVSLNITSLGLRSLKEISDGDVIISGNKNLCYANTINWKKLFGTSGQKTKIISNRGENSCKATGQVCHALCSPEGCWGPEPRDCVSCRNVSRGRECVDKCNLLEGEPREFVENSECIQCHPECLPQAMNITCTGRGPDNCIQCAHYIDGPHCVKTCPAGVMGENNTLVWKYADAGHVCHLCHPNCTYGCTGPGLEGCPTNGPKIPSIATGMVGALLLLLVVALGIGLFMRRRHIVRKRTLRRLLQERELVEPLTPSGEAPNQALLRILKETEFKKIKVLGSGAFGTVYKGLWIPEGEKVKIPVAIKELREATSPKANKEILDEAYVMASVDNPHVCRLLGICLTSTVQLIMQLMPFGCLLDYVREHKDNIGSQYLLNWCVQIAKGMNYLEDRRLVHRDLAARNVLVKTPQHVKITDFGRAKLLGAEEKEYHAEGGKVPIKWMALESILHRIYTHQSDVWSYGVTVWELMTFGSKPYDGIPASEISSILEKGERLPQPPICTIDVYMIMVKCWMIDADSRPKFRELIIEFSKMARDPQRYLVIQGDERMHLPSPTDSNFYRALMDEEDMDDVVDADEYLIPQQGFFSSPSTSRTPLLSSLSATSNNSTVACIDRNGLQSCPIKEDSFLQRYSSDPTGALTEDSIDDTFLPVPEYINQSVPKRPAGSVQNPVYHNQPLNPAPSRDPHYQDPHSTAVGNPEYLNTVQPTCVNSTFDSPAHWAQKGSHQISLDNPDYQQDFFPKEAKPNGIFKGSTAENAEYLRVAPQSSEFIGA
Sequence of EGFR L858R (P00533 25-1210 L858R): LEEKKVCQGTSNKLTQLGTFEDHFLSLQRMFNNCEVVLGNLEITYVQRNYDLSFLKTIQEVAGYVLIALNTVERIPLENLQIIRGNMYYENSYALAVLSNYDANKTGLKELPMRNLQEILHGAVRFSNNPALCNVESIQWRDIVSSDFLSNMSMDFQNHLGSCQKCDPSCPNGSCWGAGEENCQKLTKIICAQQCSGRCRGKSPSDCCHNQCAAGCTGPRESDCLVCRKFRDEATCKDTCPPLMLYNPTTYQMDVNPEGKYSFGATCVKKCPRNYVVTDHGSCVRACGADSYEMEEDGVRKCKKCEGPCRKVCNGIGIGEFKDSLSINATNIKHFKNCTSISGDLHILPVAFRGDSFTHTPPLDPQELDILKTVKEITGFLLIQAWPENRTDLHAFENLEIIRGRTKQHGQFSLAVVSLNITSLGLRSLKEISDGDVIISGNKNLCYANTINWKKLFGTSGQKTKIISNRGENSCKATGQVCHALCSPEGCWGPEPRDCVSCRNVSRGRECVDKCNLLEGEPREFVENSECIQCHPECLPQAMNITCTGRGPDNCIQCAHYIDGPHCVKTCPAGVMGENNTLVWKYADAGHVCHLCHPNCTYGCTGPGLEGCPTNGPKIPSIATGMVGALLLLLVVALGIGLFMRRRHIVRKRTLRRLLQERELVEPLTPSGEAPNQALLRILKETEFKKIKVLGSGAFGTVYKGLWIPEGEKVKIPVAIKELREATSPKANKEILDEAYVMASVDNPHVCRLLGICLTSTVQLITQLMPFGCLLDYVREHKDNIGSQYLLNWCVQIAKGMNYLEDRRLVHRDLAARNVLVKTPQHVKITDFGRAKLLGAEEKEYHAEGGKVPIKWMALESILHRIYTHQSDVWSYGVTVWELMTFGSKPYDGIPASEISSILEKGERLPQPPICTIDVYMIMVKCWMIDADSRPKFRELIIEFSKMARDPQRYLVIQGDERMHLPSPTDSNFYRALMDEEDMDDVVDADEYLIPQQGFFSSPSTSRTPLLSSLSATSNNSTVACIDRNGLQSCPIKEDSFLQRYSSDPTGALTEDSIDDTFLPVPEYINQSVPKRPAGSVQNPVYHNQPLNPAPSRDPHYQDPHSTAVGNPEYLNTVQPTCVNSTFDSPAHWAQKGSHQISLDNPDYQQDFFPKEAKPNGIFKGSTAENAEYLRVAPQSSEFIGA

SMILES | IC50 (HER2 INS YVMA) | IC50 [1] | IC50 [2] | IC50 (EGFR T790M L858R) | IC50 (EGFR L858R) | IC50 (EGFR (del746-750)) | IC50 (EGFR wt) | IC50 (A431) | IC50 (EGFR L858R T790M Ba/F3) | IC50 (EGFR L858R Ba/F3) | IC50 (EGFR vIII Ba/F3) | IC50 (Cuto-17) | IC50 (H1975)
C=CC(=O)Nc1cc(-c2c(-c3cnn(C)c3)[nH]c3ncc(-c4cnn(C)c4)cc23)ccc1C [Example 26, N-(5-(2,5-bis(1-methyl-1H-pyrazol-4-yl)-1H-pyrrolo[2,3-b]pyridin-3-yl)-2-methylphenyl)acrylamide 2,2,2-trifluoroacetate] | 100 to 500 nM | 50 to 100 nM | 100 to 500 nM | ≤ 50 nM | ≤ 50 nM | ≤ 50 nM | ≤ 50 nM | 1000 to 10000 nM | 100 to 500 nM | ≤ 50 nM | ≤ 50 nM | – | –
C=CC(=O)Nc1cc(-c2c(-c3cnn(C)c3)[nH]c3ncc(-c4cnn(CC)c4)cc23)ccc1C [Example 28, N-(5-(5-(1-ethyl-1H-pyrazol-4-yl)-2-(1-methyl-1 H-pyrazol-4-yl)-1 H-pyrrolo[2,3-b]pyridin-3-yl)-2-methylphenyl)acrylamide] | 50 to 100 nM | ≤ 50 nM | 100 to 500 nM | ≤ 50 nM | ≤ 50 nM | ≤ 50 nM | ≤ 50 nM | 1000 to 10000 nM | 50 to 100 nM | ≤ 50 nM | ≤ 50 nM | – | –
C=CC(=O)Nc1cc(-c2c(-c3cnn(C)c3)[nH]c3ncc(-c4cnn(C5CC5)c4)cc23)ccc1C [Example 31, N-(5-(5-(1-cyclopropyl-1H-pyrazol-4-yl)-2-(1-methyl-1 H-pyrazol-4-yl)-1 H-pyrrolo[2,3-b]pyridin-3-yl)-2-methylphenyl)acrylamide] | 50 to 100 nM | 50 to 100 nM | 100 to 500 nM | ≤ 50 nM | ≤ 50 nM | ≤ 50 nM | ≤ 50 nM | 1000 to 10000 nM | ≤ 50 nM | ≤ 50 nM | ≤ 50 nM | – | –
C=CC(=O)Nc1cc(-c2c(-c3cnn(CCO)c3)[nH]c3ncc(C(=O)OC(C)C)c(C)c23)ccc1C [Example 23, isopropyl 3-(3-acrylamido-4-methylphenyl)-2-(1-(2-hydroxyethyl)-1H-pyrazol-4-yl)-4-methyl-1 H-pyrrolo[2,3-b]pyridine-5-carboxylate] | 100 to 500 nM | 100 to 500 nM | 500 to 1000 nM | 50 to 100 nM | ≤ 50 nM | ≤ 50 nM | ≤ 50 nM | 1000 to 10000 nM | 100 to 500 nM | ≤ 50 nM | 50 to 100 nM | – | –
C=CC(=O)Nc1cc(-c2c(-c3cnn(C4COC4)c3)[nH]c3ncc(C(=O)OC(C)C)c(C)c23)ccc1C [Example 19, isopropyl 3-(3-acrylamido-4-methylphenyl)-4-methyl-2-(1-(oxetan-3-yl)-1 H-pyrazol-4-yl)-1 H-pyrrolo[2,3-b]pyridine-5-carboxylate] | ≤ 50 nM | ≤ 50 nM | 100 to 500 nM | ≤ 50 nM | – | – | ≤ 50 nM | 1000 to 10000 nM | – | – | 100 to 500 nM | 100 to 500 nM | 100 to 500 nM
C=CC(=O)Nc1cc(-c2c(-c3cnn(C4CCC4)c3)[nH]c3ncc(C(=O)OC(C)C)c(C)c23)ccc1C [Example 16, isopropyl 3-(3-acrylamido-4-methylphenyl)-2-(1-cyclobutyl-1 H-pyrazol-4-yl)-4-methyl-1H-pyrrolo[2,3-b]pyridine-5-carboxylate] | 500 to 1000 nM | 100 to 500 nM | 100 to 500 nM | 100 to 500 nM | – | – | ≤ 50 nM | 1000 to 10000 nM | – | – | 100 to 500 nM | 500 to 1000 nM | 500 to 1000 nM
C=CC(=O)Nc1cc(-c2c(-c3cnn(C(C)C)c3)[nH]c3ncc(C(=O)OC(C)C)c(C)c23)ccc1C [Example 13, isopropyl 3-(3-acrylamido-4-methylphenyl)-2-(1-isopropyl-1 H-pyrazol-4-yl)-4-methyl-1H-pyrrolo[2,3-b]pyridine-5-carboxylate] | 100 to 500 nM | ≤ 50 nM | 100 to 500 nM | 50 to 100 nM | – | – | ≤ 50 nM | 1000 to 10000 nM | – | – | 100 to 500 nM | 100 to 500 nM | 100 to 500 nM
C=CC(=O)Nc1cc(-c2c(-c3cnn(CCC)c3)[nH]c3ncc(C(=O)OC(C)C)c(C)c23)ccc1C [Example 14, isopropyl 3-(3-acrylamido-4-methylphenyl)-4-methyl-2-(1-propyl-1 H-pyrazol-4-yl)-1H-pyrrolo[2,3-b]pyridine-5-carboxylate] | 100 to 500 nM | 50 to 100 nM | 100 to 500 nM | 50 to 100 nM | – | – | ≤ 50 nM | 1000 to 10000 nM | – | – | 100 to 500 nM | 100 to 500 nM | 100 to 500 nM
C=CC(=O)Nc1cc(-c2c(-c3cnn(CCN4CCOCC4)c3)[nH]c3ncc(C(=O)OC(C)C)c(C)c23)ccc1C [Example 17, isopropyl 3-(3-acrylamido-4-methylphenyl)-4-methyl-2-(1-(2-morpholinoethyl)-1 H-pyrazol-4-yl)-1 H-pyrrolo[2,3-b]pyridine-5-carboxylate] | ≤ 50 nM | 100 to 500 nM | 100 to 500 nM | ≤ 50 nM | – | – | ≤ 50 nM | 1000 to 10000 nM | – | – | 100 to 500 nM | 100 to 500 nM | 500 to 1000 nM
